Like-named read-outs stand apart in the source and are kept apart here.
Experiments:
ABA 107292 = assay: MIC, broth microdilution (CLSI), substance alone or ATB combined with compound at 4 or 8 μg/mL; format: cell-based, A. baumannii; settings: substance alone
Method in brief: (§1)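 CLSI M7-A7 broth microdilution. ca-MHB, 5·10^5 CFU/mL log-phase cells, 16-20 h, 35° C, ambient air. Fosfomycin wells + 25 μg/ml glucose-6-phosphate. Visual MIC read.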

ABA UFR151 = assay: as above; format: cell-based, A. baumannii; settings: substance alone
Method in brief: as §1

ABA UFR152 = assay: as above; format: cell-based, A. baumannii; settings: substance alone
Method in brief: as §1

ABA UFR153 = assay: as above; format: cell-based, A. baumannii; settings: substance alone
Method in brief: as §1

ABA UFR154 = assay: as above; format: cell-based, A. baumannii; settings: substance alone
Method in brief: as §1

ABA UFR155 = assay: as above; format: cell-based, A. baumannii; settings: substance alone
Method in brief: as §1

ABA UFR156 = assay: as above; format: cell-based, A. baumannii; settings: substance alone
Method in brief: as §1

ABA UFR157 = assay: as above; format: cell-based, A. baumannii; settings: substance alone
Method in brief: as §1

ABA UFR158 = assay: as above; format: cell-based, A. baumannii; settings: substance alone
Method in brief: as §1

ABA UFR159 = assay: as above; format: cell-based, A. baumannii; settings: substance alone
Method in brief: as §1

ABA UFR161 = assay: as above; format: cell-based, A. baumannii; settings: substance alone
Method in brief: as §1

PAE UFR48 = assay: Fractional Inhibitory Concentration Index, checkerboard assay; format: cell-based, P. aeruginosa
Method in brief: (§2)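 Two-agent checkerboards of 2-fold dilutions in ca-MHB were inoculated at 5.10^5 CFU/mL and incubated 18 h at 35 °C in air, in duplicate; fosfomycin wells also held 25 μg/ml glucose-6-phosphate. FICI calculated as the sum of combination/alone MIC ratios for each drug.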

PAE UFR90 = assay: as above; format: cell-based, P. aeruginosa
Method in brief: as §2

KPN UFR68 = assay: as above; format: cell-based, K. pneumoniae
Method in brief: as §2

ECL P99 = assay: as above; format: cell-based, E. cloacae
Method in brief: as §2

ECO 190317 = assay: as above; format: cell-based, E. coli
Method in brief: as §2

[1] = Acinetobacter baumannii, read-out: MIC

MIC (ABA 107292; [1]) [µg/mL] | MIC (ABA UFR151; [1]) [µg/mL] | MIC (ABA UFR152; [1]) [µg/mL] | MIC (ABA UFR153; [1]) [µg/mL] | MIC (ABA UFR154; [1]) [µg/mL] | MIC (ABA UFR155; [1]) [µg/mL] | MIC (ABA UFR156; [1]) [µg/mL] | MIC (ABA UFR157; [1]) [µg/mL] | MIC (ABA UFR158; [1]) [µg/mL] | MIC (ABA UFR159; [1]) [µg/mL] | MIC (ABA UFR161; [1]) [µg/mL] | SMILES | FIC index min (PAE UFR48; compound +ATM) | FIC index min (PAE UFR48; compound +FEP) | FIC index min (PAE UFR48; compound +FOS) | FIC index min (PAE UFR48; compound +MEM) | FIC index min (KPN UFR68; compound +ATM) | FIC index min (KPN UFR68; compound +FEP) | FIC index min (KPN UFR68; compound +FOS) | FIC index min (KPN UFR68; compound +MEM) | FIC index min (KPN UFR68; compound +PIP) | other results
> 32 | > 32 | > 32 | > 32 | > 32 | > 32 | > 32 | > 32 | > 32 | > 32 | > 32 | O=C1N2CC(c3ncco3)=C[C@H](C2)N1OS(=O)(=O)[O-].[Na+] [Example 9, sodium [(5R)-3-(oxazol-2-yl)-7-oxo-1,6-diazabicyclo[3.2.1]oct-3-en-6-yl] sulfate] | 0.14 | 0.50 | 1.0 | 0.8 | ≤0.27 | ≤0.05 | 0.50 | 0.15 | ≤0.27 | FIC index min (PAE UFR48; compound +PIP): 0.32; FIC index min (PAE UFR90; compound +ATM): ≤0.30; FIC index min (PAE UFR90; compound +FEP): ≤0.27; FIC index min (PAE UFR90; compound +FOS): ≤0.52; FIC index min (PAE UFR90; compound +MEM): ≤0.53; FIC index min (PAE UFR90; compound +PIP): ≤0.23; FIC index min (ECL P99; compound +ATM): 0.53; FIC index min (ECL P99; compound +FEP): 0.23; FIC index min (ECL P99; compound +FOS): ≤0.19; FIC index min (ECL P99; compound +MEM): 0.88; FIC index min (ECL P99; compound +PIP): 0.20; FIC index min (ECO 190317; compound +ATM): 0.20; FIC index min (ECO 190317; compound +FEP): ≤0.07; FIC index min (ECO 190317; compound +FOS): 0.69; FIC index min (ECO 190317; compound +MEM): 0.58; FIC index min (ECO 190317; compound +PIP): ≤0.21
> 32 | > 32 | > 32 | > 32 | > 32 | > 32 | > 32 | > 32 | > 32 | > 32 | > 32 | NCCON=C1C[C@@H](C(N)=O)N2C[C@@H]1N(OS(=O)(=O)[O-])C2=O.[Na+] [Example 2, sodium and 2,2,2-trifluoroacetate [(2S,5S)-4-(2-ammonium-ethoxyimino)-2-carbamoyl-7-oxo-1,6-diazabicyclo[3.2.1]octan-6-yl] sulfate] | 0.09 | 0.63 | 0.50 | 0.8 | 0.05 | ≤0.0098 | 0.25 | 0.03 | 0.09 | FIC index min (PAE UFR48; compound +PIP): 0.31; FIC index min (PAE UFR90; compound +ATM): ≤0.22; FIC index min (PAE UFR90; compound +FEP): ≤0.28; FIC index min (PAE UFR90; compound +FOS): ≤0.63; FIC index min (PAE UFR90; compound +MEM): ≤0.38; FIC index min (PAE UFR90; compound +PIP): ≤0.15; FIC index min (ECL P99; compound +ATM): 0.50; FIC index min (ECL P99; compound +FEP): 0.14; FIC index min (ECL P99; compound +FOS): ≤0.14; FIC index min (ECL P99; compound +MEM): 0.50; FIC index min (ECL P99; compound +PIP): 0.14; FIC index min (ECO 190317; compound +ATM): 0.08; FIC index min (ECO 190317; compound +FEP): ≤0.06; FIC index min (ECO 190317; compound +FOS): 0.56; FIC index min (ECO 190317; compound +MEM): 0.50; FIC index min (ECO 190317; compound +PIP): ≤0.25
– | – | – | – | – | – | – | – | – | – | – | O=C(O)C(F)(F)F.O=C1N2C[C@H](c3scnc3[C@H]2c2ncc[nH]2)N1OS(=O)(=O)[O-].[Na+] (relative stereo) [Example 6, sodium and 2,2,2-trifluoroacetate [trans-7-(1H-imidazol-3-ium--2-yl)-9-oxo-3-thia-5,8,10-triaza-tricyclo[6.2.1.0^2,6]undeca-2(6),4-dien-10-yl]sulfate] | – | – | – | – | 1.0 | 1.0 | 0.28 | 0.50 | ≤0.5 | MIC (ABA 107292): >32 µg/mL; MIC (ABA UFR151): 32 µg/mL; MIC (ABA UFR152): 32 µg/mL; MIC (ABA UFR153): 16 µg/mL; MIC (ABA UFR154): 32 µg/mL; MIC (ABA UFR155): 16 µg/mL; MIC (ABA UFR156): 16 µg/mL; MIC (ABA UFR157): 8 µg/mL; MIC (ABA UFR158): 16 µg/mL; MIC (ABA UFR159): >32 µg/mL; MIC (ABA UFR161): 32 µg/mL

SMILES | MIC (ABA 107292; [1]) [µg/mL] | MIC (ABA UFR151; [1]) [µg/mL] | MIC (ABA UFR152; [1]) [µg/mL] | MIC (ABA UFR153; [1]) [µg/mL] | MIC (ABA UFR154; [1]) [µg/mL] | MIC (ABA UFR155; [1]) [µg/mL] | MIC (ABA UFR156; [1]) [µg/mL] | MIC (ABA UFR157; [1]) [µg/mL] | MIC (ABA UFR158; [1]) [µg/mL] | MIC (ABA UFR159; [1]) [µg/mL] | MIC (ABA UFR161; [1]) [µg/mL] | FIC index min (PAE UFR48; compound +ATM) | FIC index min (PAE UFR48; compound +FEP) | FIC index min (PAE UFR48; compound +FOS) | FIC index min (PAE UFR48; compound +MEM) | FIC index min (KPN UFR68; compound +ATM) | FIC index min (KPN UFR68; compound +FEP) | FIC index min (KPN UFR68; compound +FOS) | FIC index min (KPN UFR68; compound +MEM) | FIC index min (KPN UFR68; compound +PIP) | other results
NC[C@H]1C=C(c2cnco2)[C@@H]2CN1C(=O)N2OS(=O)(=O)[O-].O=C(O)C(F)(F)F.[Na+] (relative stereo) [Example 1, sodium and 2,2,2-trifluoroacetate [trans-2-(azaniumylmethyl)-4-oxazol-5-yl-7-oxo-1,6-diazabicyclo[3.2.1]oct-3-en-6-yl] sulfate] | > 32 | > 32 | > 32 | > 32 | > 32 | > 32 | > 32 | > 32 | > 32 | > 32 | > 32 | 0.25 | 0.53 | 0.62 | 0.27 | ≤0.023 | ≤0.0088 | ≤0.126 | ≤0.0098 | ≤0.012 | FIC index min (PAE UFR48; compound +PIP): 0.27; FIC index min (PAE UFR90; compound +ATM): 0.54; FIC index min (PAE UFR90; compound +FEP): 0.50; FIC index min (PAE UFR90; compound +FOS): 1.0; FIC index min (PAE UFR90; compound +MEM): 0.75; FIC index min (PAE UFR90; compound +PIP): 0.88; FIC index min (ECL P99; compound +ATM): 0.50; FIC index min (ECL P99; compound +FEP): 0.47; FIC index min (ECL P99; compound +FOS): ≤0.3125; FIC index min (ECL P99; compound +MEM): 0.56; FIC index min (ECL P99; compound +PIP): 0.50; FIC index min (ECO 190317; compound +ATM): 0.51; FIC index min (ECO 190317; compound +FEP): 0.49; FIC index min (ECO 190317; compound +FOS): 0.37; FIC index min (ECO 190317; compound +MEM): 0.63; FIC index min (ECO 190317; compound +PIP): ≤0.38

Reference: US20200024278A1, “COMPOSITION COMPRISING ANTIBIOTIC COMPOUND AND AN HETEROCYCLIC COMPOUND AND THEIR USE IN PREVENTING OR TREATING BACTERIAL INFECTIONS” (MUTABILIS, priority 2016, published 2020)
